Results on 21 molecules are retold here after patent publication US10875851B2, “Factor XIIa inhibitors” (Merck Sharp & Dohme Corp., priority 2016, dated 2020).

pIC50: −log10 of the molar value.

The target in the assay is human Factor XIIa (Homo sapiens (Human), UniProt P00748). Description: Factor XIIa Assay. The format is biochemical. To be noted: purified human Factor XIIa 500 pM; substrate n-Acetyl-Lys-Pro-Arg-AFC 100 μM; pH 7.4; read-out: FXIIa IC50. The protocol:
The effectiveness of a compound of the present invention as an inhibitor of Coagulation Factor XIIa can be determined using a relevant purified serine protease, and an appropriate synthetic substrate. The rate of hydrolysis of the chromogenic or fluorogenic substrate by the relevant serine protease was measured both in the absence and presence of compounds of the present invention. Assays were conducted at room temperature or at 37° C. […] A decrease in the rate of fluorescence change in the presence of inhibitor is indicative of enzyme inhibition. Such methods are known to one skilled in the art.
Factor XIIa activity determinations were made in 50 mM HEPES buffer containing 150 mM NaCl, 5 mM CaCl2, and 0.1% PEG 8000 (polyethylene glycol; JT Baker or Fisher Scientific) at pH 7.4. Determinations were made using purified human Factor XIIa at a final concentration of 500 pM (Sekisui Diagnostics) and the synthetic substrate, n-Acetyl-Lys-Pro-Arg-AFC, TFA salt (Sigma #C6608) at a concentration of 100 μM.
Times required to achieve equilibration between enzyme and inhibitor were determined in control experiments. Initial velocities of product formation in the absence (Vo) or presence of inhibitor (Vi) were measured. IC50 was determined as the concentration of I yielding Vi=Vo/2.

Chain of human Factor XIIa (P00748 373-615): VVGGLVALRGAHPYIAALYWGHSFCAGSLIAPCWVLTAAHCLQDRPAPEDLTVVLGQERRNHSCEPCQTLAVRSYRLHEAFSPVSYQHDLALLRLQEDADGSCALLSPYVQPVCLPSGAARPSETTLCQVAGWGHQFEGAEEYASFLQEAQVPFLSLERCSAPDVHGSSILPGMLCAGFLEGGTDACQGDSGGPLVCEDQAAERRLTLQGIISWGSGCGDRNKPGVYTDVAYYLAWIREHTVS

As usually defined, the pIC50 is the IC50 on a negative log10 scale, so that one unit is a factor of ten. As for `Cc1ccc(OC(=O)N2CCN(C(=O)[C@@H](CCCCN(C)C)N(C)C3CCCCC3)[C@H](C(=O)NCc3cccs3)C2)c(Cl)c1C` [Example 101, 2-chloro-3,4-dimethylphenyl (3S)-4-(N^2-cyclohexyl-N^2,N^6,N^6-trimethyl-D-lysyl)-3-[(thiophen-2-ylmethyl)carbamoyl]piperazine-1-carboxylate], the negative-log IC50 (pIC50) was 10.00.
`Cc1ccc(OC(=O)N2CCN(C(=O)[C@@H](CCCCNC(C)C)NC3CCCCC3)[C@H](C(=O)NCc3cccs3)C2)c(Cl)c1C` [Example 102, 2-chloro-3,4-dimethylphenyl (3S)-4-[N^2-cyclohexyl-N^6-(1-methylethyl)-D-lysyl]-3-[(thiophen-2-ylmethyl)carbamoyl]piperazine-1-carboxylate]: the pIC50 was 9.15.
With `Cc1ccc(OC(=O)N2CCN(C(=O)[C@@H](CCCCNC(C)C)NC(C)C)[C@H](C(=O)NCc3cccs3)C2)c(Cl)c1C` [Example 103, 2-chloro-3,4-dimethylphenyl (3S)-4-[N^2,N^6-bis(1-methylethyl)-D-lysyl]-3-[(thiophen-2-ylmethyl)carbamoyl]piperazine-1-carboxylate] the figure was 8.85.
Next, `Cc1ccc(OC(=O)N2CCN(C(=O)[C@@H](CCCCN3CCCCC3)NC3CCC4(CC3)CCN(Cc3ccccc3)C4)[C@H](C(=O)NCc3cccs3)C2)c(Cl)c1C` (stereo partly drawn) [Example 104, 2-chloro-3,4-dimethylphenyl (3S)-4-[N-(2-benzyl-2-azaspiro[4.5]dec-8-yl)-6-piperidin-1-yl-D-norleucyl]-3-[(thiophen-2-ylmethyl)carbamoyl]piperazine-1-carboxylate]: 9.70; `Cc1ccc(OC(=O)N2CCN(C(=O)[C@@H](CCCCNC(C)C)NC3CCC4(CC3)CCN(Cc3ccccc3)C4)[C@H](C(=O)NCc3cccs3)C2)c(Cl)c1C` (stereo partly drawn) [Example 105, 2-chloro-3,4-dimethylphenyl (3S)-4-[N^2-(2-benzyl-2-azaspiro[4.5]dec-8-yl)-N^6-(1-methylethyl)-D-lysyl]-3-[(thiophen-2-ylmethyl)carbamoyl]piperazine-1-carboxylate]: 9.30; `CC[C@@H](NC1CCCCC1)C(=O)N1CCN(C(=O)Oc2ccc(C)c(C)c2Cl)C[C@H]1C(=O)NCc1ccc(CN)c(OC)c1` [Example 106, 2-chloro-3,4-dimethylphenyl (3S)-3-{[4-(aminomethyl)-3-methoxybenzyl]carbamoyl}-4-[(2R)-2-(cyclohexylamino)butanoyl]piperazine-1-carboxylate]: 8.21.
Turning to `CC[C@@H](NC1CCC2(CC1)CCN(Cc1ccccc1)C2)C(=O)N1CCN(C(=O)Oc2ccc(C)c(C)c2Cl)C[C@H]1C(=O)NCc1ccc(CN)c(OC)c1` (stereo partly drawn) [Example 107, 2-chloro-3,4-dimethylphenyl (3S)-3-{[4-(aminomethyl)-3-methoxybenzyl]carbamoyl}-4-{(2R)-2-[(2-benzyl-2-azaspiro[4.5]dec-8-yl)amino]butanoyl}piperazine-1-carboxylate], the pIC50 is 7.85.
With `Cc1ccc(OC(=O)N2CCN(C(=O)[C@@H](CCCCN(C)C)NC3CCC4(CC3)CCN(Cc3ccccc3)C4)[C@H](C(=O)NCc3cccs3)C2)c(Cl)c1C` (stereo partly drawn) [Example 108, 2-chloro-3,4-dimethylphenyl (3S)-4-[N^2-(2-benzyl-2-azaspiro[4.5]dec-8-yl)-N^6,N^6-dimethyl-D-lysyl]-3-[(thiophen-2-ylmethyl)carbamoyl]piperazine-1-carboxylate] the figure was 9.52.
With `Cc1ccc(OC(=O)N2CCN(C(=O)[C@@H](CCCCN3CCCC3)NC3CCC4(CC3)CCN(Cc3ccccc3)C4)[C@H](C(=O)NCc3cccs3)C2)c(Cl)c1C` (stereo partly drawn) [Example 109, 2-chloro-3,4-dimethylphenyl (3S)-4-[N-(2-benzyl-2-azaspiro[4.5]dec-8-yl)-6-pyrrolidin-1-yl-D-norleucyl]-3-[(thiophen-2-ylmethyl)carbamoyl]piperazine-1-carboxylate] the figure was 9.00; with `Cc1ccc(OC(=O)N2CCN(C(=O)[C@@H](CCCCN3CCCC3C)NC3CCC4(CC3)CCN(Cc3ccccc3)C4)[C@H](C(=O)NCc3cccs3)C2)c(Cl)c1C` (stereo partly drawn) [Example 110, 2-chloro-3,4-dimethylphenyl (3S)-4-[N-(2-benzyl-2-azaspiro[4.5]dec-8-yl)-6-(2-methylpyrrolidin-1-yl)-D-norleucyl]-3-[(thiophen-2-ylmethyl)carbamoyl]piperazine-1-carboxylate], 9.52.
Next, `Cc1ccc(OC(=O)N2CCN(C(=O)[C@H](N)CCCCN3CCCCC3)[C@H](C(=O)NCc3cccs3)C2)c(Cl)c1C` [Example 111, 2-chloro-3,4-dimethylphenyl (3S)-4-(6-piperidin-1-yl-D-norleucyl)-3-[(thiophen-2-ylmethyl)carbamoyl]piperazine-1-carboxylate]: 8.30.
With `CS(=O)(=O)NCCCC[C@@H](NC1CCCC1)C(=O)N1CCN(C(=O)Oc2ccc3ccccc3c2Cl)C[C@H]1C(=O)NCc1cccs1` [Example 113, 1-chloronaphthalen-2-yl (3S)-4-[N^2-cyclopentyl-N~6~-(methylsulfonyl)-D-lysyl]-3-[(thiophen-2-ylmethyl)carbamoyl]piperazine-1-carboxylate], the negative-log IC50 (pIC50) is 8.08.
With `C[C@H]1N=C(N2CCN(C(=O)[C@@H](CC3CCCCC3)NC3CCCCC3)[C@H](C(=O)NCc3cccs3)C2)O[C@H]1c1ccccc1` [Example 114, (2S)-1-(N,3-dicyclohexyl-D-alanyl)-4-[(4R,5S)-4-methyl-5-phenyl-4,5-dihydro-1,3-oxazol-2-yl]-N-(thiophen-2-ylmethyl)piperazine-2-carboxamide] the figure was 7.77.
For `CC(C)N[C@H](CCCCN1CCCCC1)C(=O)N1CCN(C2=N[C@@H](C)[C@H](c3ccccc3)O2)C[C@H]1C(=O)NCc1cccs1` [Example 115, (2S)-1-[N-(1-methylethyl)-6-piperidin-1-yl-D-norleucyl]-4-[(4S,5S)-4-methyl-5-phenyl-4,5-dihydro-1,3-oxazol-2-yl]-N-(thiophen-2-ylmethyl)piperazine-2-carboxamide], the negative logarithm of the IC50 (pIC50) was 8.42.
Next, `C[C@@H]1N=C(N2CCN(C(=O)[C@@H](CCCCNS(C)(=O)=O)NC3CCCCC3)[C@H](C(=O)NCc3cccs3)C2)O[C@H]1c1cccc(C#N)c1` [Example 116, (2S)-4-[(4S,5S)-5-(3-cyanophenyl)-4-methyl-4,5-dihydro-1,3-oxazol-2-yl]-1-[N^2-cyclohexyl-N^6-(methylsulfonyl)-D-lysyl]-N-(thiophen-2-ylmethyl)piperazine-2-carboxamide]: 7.75; `C[C@@H]1N=C(N2CCN(C(=O)[C@@H](CCCCNS(C)(=O)=O)NC3CCCCC3)[C@H](C(=O)NCc3cccs3)C2)O[C@H]1c1cccc(CN)c1` [Example 117, (2S)-4-{(4S,5S)-5-[3-(aminomethyl)phenyl]-4-methyl-4,5-dihydro-1,3-oxazol-2-yl}-1-[N^2-cyclohexyl-N^6-(methylsulfonyl)-D-lysyl]-N-(thiophen-2-ylmethyl)piperazine-2-carboxamide]: 8.28; `COc1cc(CNC(=O)[C@@H]2CN(C3=N[C@@H](C)[C@H](c4ccccc4)O3)CCN2C(=O)[C@@H](CCCCN2CCCCC2)NC(C)C)ccc1CN` [Example 118, (2S)-N-[4-(aminomethyl)-3-methoxybenzyl]-1-[N-(1-methylethyl)-6-piperidin-1-yl-D-norleucyl]-4-[(4S,5S)-4-methyl-5-phenyl-4,5-dihydro-1,3-oxazol-2-yl]piperazine-2-carboxamide]: 8.09.
On to `C[C@@H]1N=C(N2CCN(C(=O)[C@H](NC3CCC(C(N)=O)CC3)[C@H]3CC[C@H](N4CCCCC4)CC3)[C@H](C(=O)NCc3cccs3)C2)O[C@H]1c1ccccc1` (stereo partly drawn) [Example 119, (2S)-1-[(2R)-2-[(4-carbamoylcyclohexyl)amino]-2-(trans-4-piperidin-1-ylcyclohexyl)acetyl]-4-[(4S,5S)-4-methyl-5-phenyl-4,5-dihydro-1,3-oxazol-2-yl]-N-(thiophen-2-ylmethyl)piperazine-2-carboxamide], for which the pIC50 was 8.82.
Consider `C[C@H]1N=C(N2CCN(C(=O)[C@@H](CCCCNS(C)(=O)=O)NC3CCCCC3)[C@H](C(=O)NCc3cccs3)C2)O[C@H]1c1ccccc1` [Example 122, (2S)-1-[N^2-cyclohexyl-N^6-(methylsulfonyl)-D-lysyl]-4-[(4R,5S)-4-methyl-5-phenyl-4,5-dihydro-1,3-oxazol-2-yl]-N-(thiophen-2-ylmethyl)piperazine-2-carboxamide], for which the pIC50 was 7.87.
Next, `C[C@@H]1N=C(N2CCN(C(=O)[C@@H](CCCCNS(C)(=O)=O)NC3CCCCC3)[C@H](C(=O)NCc3cccs3)C2)O[C@H]1c1ccccc1` [Example 123, (2S)-1-[N^2-cyclohexyl-N^6-(methylsulfonyl)-D-lysyl]-4-[(4S,5S)-4-methyl-5-phenyl-4,5-dihydro-1,3-oxazol-2-yl]-N-(thiophen-2-ylmethyl)piperazine-2-carboxamide]: 8.15; `C[C@@H]1N=C(N2CCN(C(=O)[C@@H](CCCCNS(C)(=O)=O)NC3CCCCC3)[C@H](C(=O)NCc3cccs3)C2)O[C@H]1c1cccc(Br)c1` [Example 124, (2S)-4-[(4S,5S)-5-(3-bromophenyl)-4-methyl-4,5-dihydro-1,3-oxazol-2-yl]-1-[N^2-cyclohexyl-N^6-(methylsulfonyl)-D-lysyl]-N-(thiophen-2-ylmethyl)piperazine-2-carboxamide]: 7.61.
